Results taken from US6358885B1, “Substituted phenylheterocyclic herbicides” (Mississippi State University, priority 1992, dated 2002).

Columns and labels:
[1] = test system: lambsquarters; assay: Test C preemergence/postemergence greenhouse plant response rating 0 to 100; type: in vivo, Chenopodium album; details: POSTEMERGENCE; for Plant response rating Lambsquarters: 0 to 100 scale
Outline: (§1)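 Compounds in non-phytotoxic solvent went onto sandy loam before emergence (seeded one day earlier) or onto plants at the one-to-four leaf stage. Duck salad was treated via flood water (~2.5 cm, maintained) over silt loam.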

[2] = test system: blackgrass; assay: Test B preemergence/postemergence greenhouse plant response rating 0 to 10; type: in vivo, Alopecurus myosuroides; details: 0 to 10 scale
Outline: (§2)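 Planted seeds are treated preemergence with compound dissolved in a non-phytotoxic solvent, while postemergence applications go onto plants of two to eighteen cm. Plants stay in the greenhouse twelve to sixteen days and are then rated visually relative to controls.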

[3] = test system: cocklebur; assay: as above; type: in vivo, Xanthium pensylvanicum; details: 0 to 10 scale
Outline: as §2

[4] = test system: giant foxtail; assay: Test C preemergence/postemergence greenhouse plant response rating 0 to 100; type: in vivo, Setaria faberii; details: POSTEMERGENCE; for Plant response rating, Giant foxtail: 0 to 100 scale
Outline: as §1

[5] = test system: blackgrass; assay: as above; type: in vivo, Alopecurus myosuroides; details: POSTEMERGENCE; for Plant response rating, Blackgrass: 0 to 100 scale
Outline: as §1

[6] = test system: barley; assay: Test B preemergence/postemergence greenhouse plant response rating 0 to 10; type: in vivo, Hordeum vulgare; details: 0 to 10 scale
Outline: as §2

[7] = test system: cotton; assay: as above; type: in vivo, Gossypium hirsutum; details: 0 to 10 scale
Outline: as §2

[8] = test system: rape; assay: Test C preemergence/postemergence greenhouse plant response rating 0 to 100; type: in vivo, Brassica napus; details: POSTEMERGENCE; for Plant response rating, Rape: 0 to 100 scale
Outline: as §1

[9] = test system: bedstraw; assay: Test B preemergence/postemergence greenhouse plant response rating 0 to 10; type: in vivo, Galium aparine; details: 0 to 10 scale
Outline: as §2

[10] = test system: duck salad; assay: Test C flood test plant response rating 0 to 100; type: in vivo, Heteranthera limosa; details: for Plant response rating Duck salad: flood test species listed under POSTEMERGENCE, 0 to 100 scale
Outline: as §1

[11] = test system: sugar beet; assay: Test C preemergence/postemergence greenhouse plant response rating 0 to 100; type: in vivo, Beta vulgaris; details: POSTEMERGENCE; for Plant response rating, Sugar beet: 0 to 100 scale
Outline: as §1

[12] = test system: wild buckwheat; assay: Test B preemergence/postemergence greenhouse plant response rating 0 to 10; type: in vivo, Polygonum convolvulus; details: 0 to 10 scale
Outline: as §2

[13] = test system: corn; assay: Test C preemergence/postemergence greenhouse plant response rating 0 to 100; type: in vivo, Zea mays; details: POSTEMERGENCE; for Plant response rating, Corn: 0 to 100 scale
Outline: as §1

[14] = test system: wheat; assay: as above; type: in vivo, Triticum aestivum; details: POSTEMERGENCE; for Plant response rating, Wheat: 0 to 100 scale
Outline: as §1

[15] = test system: ryegrass; assay: as above; type: in vivo, Lolium multiflorum; details: POSTEMERGENCE; for Plant response rating Ryegrass: 0 to 100 scale
Outline: as §1

[16] = test system: cheatgrass; assay: Test B preemergence/postemergence greenhouse plant response rating 0 to 10; type: in vivo, Bromus secalinus; details: 0 to 10 scale
Outline: as §2

[17] = test system: rice; assay: as above; type: in vivo, Oryza sativa; details: 0 to 10 scale
Outline: as §2

[18] = test system: barnyardgrass; assay: Test C flood test plant response rating 0 to 100; type: in vivo, Echinochloa crus-galli; details: for Plant response rating Barnyardgrass 2: flood test species listed under POSTEMERGENCE, 0 to 100 scale
Outline: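 Compounds in non-phytotoxic solvent applied preemergence to sandy loam one day after planting, postemergence at the 1–4 leaf stage, or to ~2.5 cm floodwater over silt loam.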

[19] = POSTEMERGENCE section, flood test, Rate 4 g/ha
[20] = Rate 16 g/ha, under POSTEMERGENCE head (flood test species)

Structure (SMILES): Fc1cc(Cl)c(OCCCl)cc1-c1nn2c(c1Cl)CCCC2 [Compound 49]
- Plant response rating Lambsquarters ([1]; 62 g/ha): 100
- Plant response rating Lambsquarters ([1]; 250 g/ha): 100
- Plant response rating (0 to 100), Lambsquarters ([1]; Rate 4 g/ha): 100
- Plant response rating (0 to 100), Lambsquarters ([1]; Rate 16 g/ha): 100
- Plant response rating, Blackgrass ([2]; POSTEMERGENCE, Rate 50 g/ha): 4
- Plant response rating, Blackgrass ([2]; POSTEMERGENCE, Rate 200 g/ha): 6
- Plant response rating, Blackgrass ([2]; PREEMERGENCE, Rate 50 g/ha): 0
- Plant response rating, Blackgrass ([2]; Rate 200 g/ha, PREEMERGENCE): 2
- Plant response rating, Cocklebur ([3]; POSTEMERGENCE, Rate 50 g/ha): 9
- Plant response rating, Cocklebur ([3]; POSTEMERGENCE, Rate 200 g/ha): 8
- Plant response rating, Cocklebur ([3]; PREEMERGENCE, Rate 50 g/ha): 0
- Plant response rating, Cocklebur ([3]; Rate 200 g/ha, PREEMERGENCE): 0
- Plant response rating, Giant foxtail ([4]; 62 g/ha): 50
- Plant response rating, Giant foxtail ([4]; 250 g/ha): 60
- Plant response rating (0 to 100), Giant foxtail ([4]; Rate 4 g/ha): 30
- Plant response rating (0 to 100), Giant foxtail ([4]; Rate 16 g/ha): 40
- Plant response rating, Blackgrass ([5]; 62 g/ha): 50
- Plant response rating, Blackgrass ([5]; 250 g/ha): 70
- Plant response rating (0 to 100), Blackgrass ([5]; Rate 4 g/ha): 10
- Plant response rating (0 to 100), Blackgrass ([5]; Rate 16 g/ha): 40
- Plant response rating, Barley ([6]; POSTEMERGENCE, Rate 50 g/ha): 4
- Plant response rating, Barley ([6]; POSTEMERGENCE, Rate 200 g/ha): 5
- Plant response rating, Barley ([6]; PREEMERGENCE, Rate 50 g/ha): 0
- Plant response rating, Barley ([6]; Rate 200 g/ha, PREEMERGENCE): 0
- Plant response rating, Cotton ([7]; POSTEMERGENCE, Rate 50 g/ha): 10
- Plant response rating, Cotton ([7]; POSTEMERGENCE, Rate 200 g/ha): 10
- Plant response rating, Cotton ([7]; PREEMERGENCE, Rate 50 g/ha): 2
- Plant response rating, Cotton ([7]; Rate 200 g/ha, PREEMERGENCE): 2
- Plant response rating, Rape ([8]; 62 g/ha): 70
- Plant response rating, Rape ([8]; 250 g/ha): 100
- Plant response rating (0 to 100), Rape ([8]; Rate 4 g/ha): 50
- Plant response rating (0 to 100), Rape ([8]; Rate 16 g/ha): 60
- Plant response rating, Bedstraw ([9]; POSTEMERGENCE, Rate 50 g/ha): 9
- Plant response rating, Bedstraw ([9]; POSTEMERGENCE, Rate 200 g/ha): 9
- Plant response rating, Bedstraw ([9]; PREEMERGENCE, Rate 50 g/ha): 8
- Plant response rating, Bedstraw ([9]; Rate 200 g/ha, PREEMERGENCE): 9
- Plant response rating (0 to 100), Duck salad [10, 19]: 20
- Plant response rating (0 to 100), Duck salad [10, 20]: 70
- Plant response rating Duck salad ([10]; 62 g/ha): 90
- Plant response rating Duck salad ([10]; 250 g/ha): 95
- Plant response rating, Sugar beet ([11]; 62 g/ha): 100
- Plant response rating, Sugar beet ([11]; 250 g/ha): 100
- Plant response rating (0 to 100), Sugar beet ([11]; Rate 4 g/ha): 100
- Plant response rating (0 to 100), Sugar beet ([11]; Rate 16 g/ha): 100
- Plant response rating, Wild buckwheat ([12]; POSTEMERGENCE, Rate 50 g/ha): 10
- Plant response rating, Wild buckwheat ([12]; PREEMERGENCE, Rate 50 g/ha): 7
- Plant response rating, Wild buckwheat ([12]; Rate 200 g/ha, POSTEMERGENCE): 10
- Plant response rating, Wild buckwheat ([12]; Rate 200 g/ha, PREEMERGENCE): 10
- Plant response rating, Corn ([13]; 62 g/ha): 40
- Plant response rating, Corn ([13]; 250 g/ha): 50
- Plant response rating (0 to 100), Corn ([13]; Rate 4 g/ha): 10
- Plant response rating (0 to 100), Corn ([13]; Rate 16 g/ha): 30
- Plant response rating, Wheat ([14]; 62 g/ha): 50
- Plant response rating, Wheat ([14]; 250 g/ha): 70
- Plant response rating (0 to 100), Wheat ([14]; Rate 4 g/ha): 10
- Plant response rating (0 to 100), Wheat ([14]; Rate 16 g/ha): 20
- Plant response rating Ryegrass ([15]; 62 g/ha): 50
- Plant response rating Ryegrass ([15]; 250 g/ha): 60
- Plant response rating (0 to 100), Ryegrass ([15]; Rate 4 g/ha): 20
- Plant response rating (0 to 100), Ryegrass ([15]; Rate 16 g/ha): 40
- Plant response rating, Cheatgrass ([16]; POSTEMERGENCE, Rate 50 g/ha): 4
- Plant response rating, Cheatgrass ([16]; POSTEMERGENCE, Rate 200 g/ha): 7
- Plant response rating, Cheatgrass ([16]; PREEMERGENCE, Rate 50 g/ha): 0
- Plant response rating, Cheatgrass ([16]; Rate 200 g/ha, PREEMERGENCE): 2
- Plant response rating, Rice ([17]; POSTEMERGENCE, Rate 50 g/ha): 5
- Plant response rating, Rice ([17]; PREEMERGENCE, Rate 50 g/ha): 0
- Plant response rating, Rice ([17]; Rate 200 g/ha, POSTEMERGENCE): 6
- Plant response rating, Rice ([17]; Rate 200 g/ha, PREEMERGENCE): 0
- Plant response rating (0 to 100), Barnyardgrass 2 [18, 19]: 90
- Plant response rating (0 to 100), Barnyardgrass 2 [18, 20]: 100
- Plant response rating Barnyardgrass 2 ([18]; 62 g/ha): 100
- Plant response rating Barnyardgrass 2 ([18]; 250 g/ha): 100
